Data: patent US20040034039A1, “Solid preparations” (priority 2000, published 2004)

Assay: Contact angle of a water drop on a compression-molded product
Format: physicochemical
Conditions: purified water drop on 300 mg, 13 mm compression-molded product (1 ton/cm^2), 15 seconds after placing
Experimental: The “water-repellent physiologically active substance” to be used in the present invention is exemplified by a substance difficult to get wet, or having a large contact angle, and the like. A specific example thereof is a physiologically active substance having a contact angle of not less than 40 degrees, preferably not less than 60 degrees, more preferably not less than 80 degrees, as measured by forming a compression-molded product (300 mg) having a diameter of 13 mm with Shimadzu autograph (AG-5000B, manufactured by Shimadzu Corporation) at a load of 1 ton/cm^2, placing one drop of purified water on the surface thereof with a syringe, and determining the contact angles of the water drop at 15 seconds after placing with an automatic contact angle meter (CA-Z, manufactured by Kyowa Interface Science Co., Ltd.), and the like. The contact angle of a representative highly water-repellent substance, magnesium stearate, compound A to be mentioned later: (5-(N-benzyl-N-methylaminomethyl)-1-(2,6-difluorobenzyl)-6-[4-(3-methoxyureido)phenyl]-3-phenylthieno[2,3-d]jpyrimidine-2,4(1H,3H)-dione), and compound B to be mentioned later (3-(N-benzyl-N-methylaminomethyl)-4,7-dihydro-5-isobutyryl-7-(2,6-difluorobenzyl)-2-[4-[(1-hydroxycyclopropyl)carbonylamino]phenyl]-4-oxothieno[2,3-b]pyridine) as measured according to the aforementioned method were about 96 degrees, about 90 degrees and about 88 degrees respectively.
In the case of `CC(C)C(=O)c1cn(Cc2c(F)cccc2F)c2sc(-c3ccc(NC(=O)C4(O)CC4)cc3)c(CN(C)Cc3ccccc3)c2c1=O` [compound B, 3-(N-benzyl-N-methylaminomethyl)-4,7-dihydro-5-isobutyryl-7-(2,6-difluorobenzyl)-2-[4-[(1-hydroxycyclopropyl)carbonylamino]phenyl]-4-oxothieno[2,3-b]pyridine], the contact angle is reported as “about 88 degrees”. With magnesium stearate [reference compound] the contact angle was “about 96 degrees”. With `CONC(=O)Nc1ccc(-c2sc3c(c2CN(C)Cc2ccccc2)c(=O)n(-c2ccccc2)c(=O)n3Cc2c(F)cccc2F)cc1` [compound A, 5-(N-benzyl-N-methylaminomethyl)-1-(2,6-difluorobenzyl)-6-[4-(3-methoxyureido)phenyl]-3-phenylthieno[2,3-d]pyrimidine-2,4(1H,3H)-dione] the contact angle was “about 90 degrees”.
